The values below come from patent US20230285399A1, “Compound for the treatment and prophylaxis of a lipofuscin-associated disease and/or a disease associated with aged oxidized melanin” (EBERHARD KARLS UNIVERSITAET TUEBINGEN MEDIZINISCHE FAKULTAET, priority 2020, published 2023).

Structures are written as SMILES. Entries after “also recorded” stand apart in the source; their conditions may differ.

The test system of one data set is function of the retina. Particulars: mouse, in vivo.
Data set [1] deals with pigmented Abca^4−/− mice. The following applies: mouse, in vivo.
Data set [2] deals with albino Abca^4−/− mice. As to the kind of experiment: Removal of lipofuscin from RPE with SIN-1, fluorescence microscopy (SW-AF) of semi-thin eye sections. The class given is in vivo. Particulars: 130 μg SIN-1 into the right eye, 48 hours, vs untreated eyes. As to the method:
Pigmented WT mice (12952), pigmented Abca^4-/- mice (12954/SvJae-Abca4[…] albino Abca^4-/- mice^(BALB/c-Abca4tm1Ght) (Stargardt mice) were used in this work. WT mice were purchased from Harlan Laboratories ([…], UK), the knock-out strains were bred in the inventor's in-house facility. Light cycling was 12 h light (approximately 50 lx in cages)/12 h dark, food and water were available ad libitum. Animals were anesthetized by i.p. injection of a mix of fentanyl (0.05 mg/kg body weight), midazolam (5.0 mg/kg body weight) and medetomidine (0.50 mg/kg body weight). […] The mice were 2 years old. The left eyes remained untreated as controls. The mice were killed 48 hours after the injections and the eyes were […]. Mouse eyes were fixed, embedded in epon resin and sectioned according to standard procedures. For fluorescence analysis, post-fixation and staining with heavy metals was omitted. […] Binning x2 was applied for all images and acquisition times, as well as microscope and software settings were held constant for any set of samples to allow comparison of fluorescence intensities. […] Fluorescence intensities were determined using Fiji software. Regions of interest were determined in fluorescence and BF images using the default threshold, and area and integrated optical density (IOD) of the region of interest were measured. […]

Data set [3] relates to pigmented Abca^4−/− mice. As to the kind of experiment: Removal of lipofuscin from RPE with SIN-1, fluorescence microscopy (SW-AF, NIR-AF) of semi-thin eye sections. It counts as in vivo. As to the method:
Pigmented WT mice (12952), pigmented Abca^4-/- mice (12954/SvJae-Abca4[…] albino Abca^4-/- mice^(BALB/c-Abca4tm1Ght) (Stargardt mice) were used in this work. WT mice were purchased from Harlan Laboratories ([…], UK), the knock-out strains were bred in the inventor's in-house facility. Light cycling was 12 h light (approximately 50 lx in cages)/12 h dark, food and water were available ad libitum. Animals were anesthetized by i.p. injection of a mix of fentanyl (0.05 mg/kg body weight), midazolam (5.0 mg/kg body weight) and medetomidine (0.50 mg/kg body weight). […] The mice were 2 years old. The left eyes remained untreated as controls. The mice were killed 48 hours after the injections and the eyes were […]. Mouse eyes were fixed, embedded in epon resin and sectioned according to standard procedures. For fluorescence analysis, post-fixation and staining with heavy metals was omitted. […] Filter sets were a custom made lipofuscin filter set (excitation 370/36 nm, emission 575/15, 400 nm beam splitter) for short wavelength-autofluorescence (SW-AF) and a commercial Cy7 filter set (excitation 708/75 nm, emission 809/81 nm, 757 nm beam splitter) for NIR-AF (Near infrared AF), respectively. The lipofuscin filter set is designed to fit the reported excitation and emission maximums for lipofuscin. Binning x2 was applied for all images and acquisition times, as well as microscope and software settings were held constant for any set of samples to allow comparison of fluorescence intensities. If indicated, images with low AF intensities were post-processed with the Auto adjust colors function of the […] software to allow the localization of weak AF signals. This function enhances the contrast by redefining the darkest pixel as pure black and the brightest pixel as pure white in the histogram on a channel-by-channel basis. Fluorescence intensities were determined using Fiji software. Regions of interest were determined in fluorescence and BF images using the default threshold, and area and integrated optical density (IOD) of the region of interest were measured. […] Student's t-test with JMP 13 software (SAS, Cary, NC, USA) was used for statistical analysis. P<0·05 was considered statistically significant.

In data set [4] the test system is albino Abca^4−/− mice. The data set can be described thus: Analysis of degradation products from lipofuscin (bisretinoids) after SIN-1 by HPLC. The class given is in vivo. The following applies: 130 μg SIN-1 into the right eye, 48 hours, 6 month old albino mice. As to the method: (§1) Seven albino and 6 pigmented mice were used. The left eyes remained untreated as control. After 48 hours the eyes from the Abca^4-/- mice were enucleated, immediately snap-frozen and stored at -80° C. for further processing. All the tissue preparation was made under dim red light and bisretinoids were extracted from the whole eyes and analyzed by HPLC following published protocols (Radu et al. 2004; Fang et al. 2020). Data were presented as picomoles per eye for A2E, iso-A2E, Total A2E or milli-absorbance (mAU) per eye for the other bisretinoids: […], dihydro-A2PE (A2PE-H2), and all-trans-RAL-dimer PE conjugates (at-RAL dimer-PE) as described (Radu et al. 2004).

For data set [5], the system named is pigmented Abca^4−/− mice. Described as above. The following applies: 130 μg SIN-1 into the right eye, 48 hours, 6 month old mice, whole eyes; stated for all mice. It counts as in vivo. As to the method: as §1
Data set [6] concerns pigmented Abca^4−/− mice. As to the kind of experiment: Combination of SIN-1 with riboflavin, quantification of fluorescent lipofuscin granules. Particulars: 130 μg SIN-1 alone or with 80 μg Riboflavin, intravitreal, 48 hours; 100% is stated as locally. The class given is in vivo.
Where [7] appears, read: SIN-1 treated eye vs untreated eye of the same mouse.

Regarding `O=[N+]([O-])O[C@@H]1CO[C@H]2[C@@H]1OC[C@@H]2O` [IS5, Isosorbide mononitrate], in the data set on function of the retina, the “ERG responses, treated vs untreated eye” value is “no difference between the treated and the untreated eyes”. Further, in the data set with pigmented Abca^4−/− mice [1], the “fluorescence of lipofuscin (fluorescence intensity, arbitrary units, FIG. 3)” value was “removed the fluorescence of lipofuscin” and the “reduction of the amount of fluorescent lipofuscin granules” value is listed as 77%.

For the compound `O=[N+]([O-])OC1COC2C(O[N+](=O)[O-])COC12` (centres unmarked) [Isoket, 3,6-bisnitrooxyhexahydrofuro[3,2-b]-furan], the “ERG responses, treated vs untreated eye” value in the data set with function of the retina is “no difference between the treated and the untreated eyes”. For the same compound, in the data set on pigmented Abca^4−/− mice [1], the “fluorescence of lipofuscin (fluorescence intensity, arbitrary units, FIG. 3)” value was “removed the fluorescence of lipofuscin” and the “number of lipofuscin granules in RPE cell layer under the fluorescence microscope (FIG. 4)” value is recorded as “reduced the number of lipofuscin granules clearly”.

As for `N=c1c[n+](N2CCOCC2)[n-]o1` [SIN-1, 3-morpholinosydnonimine], the “fluorescence of lipofuscin (SW-AF)” value in the data set with albino Abca^4−/− mice [2] was “no effect”. For the same compound, the “lipofuscin content in the retinal pigment epithelium (RPE), recognized by the loss of SW-AF” value with pigmented Abca^4−/− mice [3] (130 μg SIN-1 into the right eye, 48 hours, mean of 5 eyes vs 5 untreated eyes, mice 2 years old) is “significant (p<0.05) reduction”. Further, in the data set on pigmented Abca^4−/− mice [3] (130 μg SIN-1 into the right eye, 48 hours, vs untreated eye), the “NIR-AF fluorescence of the melanosomes (RPE)” value was “reduced but not significant (p>0.05); also recorded: somewhat diminished”. In the data set on pigmented Abca^4−/− mice [3] (setting [7]), the “NIR-AF in the melanosomes of the choroidal melanocytes” value is reported as “seems to be not effected” and the “number of lipofuscin granules in SW-AF image of semi thin sections” value is on record as “reduced in number”. The “enhancement of lipofuscin metabolites in albino mice compared with pigmented mice” value in the data set on albino Abca^4−/− mice [4] was “much lesser”. Besides, the “amount of degradation products of lipofuscin (A2E, iso-A2E, Total A2E, A2PE, A2PE-H2, at-RAL dimer-PE)” value in the data set on pigmented Abca^4−/− mice [5] is on record as “enhanced the amount of the degradation products of lipofuscin significantly”. For the same compound, the “removal of fluorescent lipofuscin granules from the RPE cells” value with pigmented Abca^4−/− mice [6] is recorded as 75%.
